# Laboratory results reported in patent US8486985B2, “Selective subtype alpha 2 adrenergic agents and methods for use thereof” (Allergan, Inc., priority 2008, dated 2013).
# Read-outs that look alike come from different tables or passages of the source.
# What was measured:
# alpha 2B receptor = target: T1, alpha 2B receptor (Homo sapiens, UniProt P18089); assay: RSAT (Receptor Selection and Amplification Technology) assay, alpha 2B; assay type: cell-based; conditions: for RSAT (rel eff) Alpha 2B: intrinsic activity: ratio of maximal effect to that of standard full agonist brimonidine
# T1 construct: expressed in transfected cells; host or cells: NIH-3T3 cells
# T1 sequence (P18089 1-450): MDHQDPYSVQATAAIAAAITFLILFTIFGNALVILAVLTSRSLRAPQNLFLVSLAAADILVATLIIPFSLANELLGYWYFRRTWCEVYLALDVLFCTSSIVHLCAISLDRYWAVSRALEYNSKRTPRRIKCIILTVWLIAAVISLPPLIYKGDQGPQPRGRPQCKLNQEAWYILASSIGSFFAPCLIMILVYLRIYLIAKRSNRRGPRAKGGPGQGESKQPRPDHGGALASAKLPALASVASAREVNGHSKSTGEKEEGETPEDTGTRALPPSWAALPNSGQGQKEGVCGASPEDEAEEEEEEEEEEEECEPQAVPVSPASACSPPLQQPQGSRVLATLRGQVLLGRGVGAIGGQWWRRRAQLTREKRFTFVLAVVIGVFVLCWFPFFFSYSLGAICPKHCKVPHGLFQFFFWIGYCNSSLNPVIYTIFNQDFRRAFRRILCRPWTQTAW
# Experimental: (§1) 76, pp. 308-311 (incorporated herein by reference) and is also described below.
# (§2) The RSAT assay measures a receptor-mediated loss of contact inhibition that results in selective proliferation of receptor-containing cells in a mixed population of confluent cells. The increase in cell number is assessed with an appropriate transfected marker gene such as β-galactosidase, the activity of which can be easily measured in a 96-well format. Receptors that activate the G protein, Gq, elicit this response. Alpha 2 receptors, which normally couple to Gi, activate the RSAT response when coexpressed with a hybrid Gq protein that has a Gi receptor recognition domain, called Gq/i5.
# (§3) NIH-3T3 cells are plated at a density of 2×10^6 cells in 15 cm dishes and maintained in Dulbecco's modified Eagle's medium supplemented with 10% calf serum. One day later, cells are cotransfected by calcium phosphate precipitation with mammalian expression plasmids encoding p-SV-β-galactosidase (5-10 μg), receptor (1-2 μg) and G protein (1-2 μg). 40 μg salmon sperm DNA may also be included in the transfection mixture. Fresh media is added on the following day and 1-2 days later, cells are harvested and frozen in 50 assay aliquots. Cells are thawed and 100 μl added to 100 μL aliquots of various concentrations of drugs in triplicate in 96-well dishes. Incubations continue 72-96 hr at 37° C. After washing with phosphate-buffered saline, β-galactosidase enzyme activity is determined by adding 200 μL of the chromogenic substrate (consisting of 3.5 mM o-nitrophenyl-β-D-galactopyranoside and 0.5% nonidet P-40 in phosphate buffered saline), incubating overnight at 30° C. and measuring optical density at 420 nm. The absorbance is a measure of enzyme activity, which depends on cell number and reflects a receptor-mediated cell proliferation. The efficacy or intrinsic activity is calculated as a ratio of the maximal effect of the drug to the maximal effect of a standard full agonist for each receptor subtype. Brimonidine, the chemical structure of which is shown below, is used as the standard agonist for the alpha 2B and alpha 2C receptors.
# alpha 2C receptor = target: T2, alpha 2C receptor (Homo sapiens, UniProt P18825); assay: RSAT (Receptor Selection and Amplification Technology) assay, alpha 2C; assay type: cell-based; conditions: for RSAT (rel eff) Alpha 2C: intrinsic activity: ratio of maximal effect to that of standard full agonist brimonidine
# T2 construct: expressed in transfected cells; host or cells: NIH-3T3 cells
# T2 sequence (P18825 1-462): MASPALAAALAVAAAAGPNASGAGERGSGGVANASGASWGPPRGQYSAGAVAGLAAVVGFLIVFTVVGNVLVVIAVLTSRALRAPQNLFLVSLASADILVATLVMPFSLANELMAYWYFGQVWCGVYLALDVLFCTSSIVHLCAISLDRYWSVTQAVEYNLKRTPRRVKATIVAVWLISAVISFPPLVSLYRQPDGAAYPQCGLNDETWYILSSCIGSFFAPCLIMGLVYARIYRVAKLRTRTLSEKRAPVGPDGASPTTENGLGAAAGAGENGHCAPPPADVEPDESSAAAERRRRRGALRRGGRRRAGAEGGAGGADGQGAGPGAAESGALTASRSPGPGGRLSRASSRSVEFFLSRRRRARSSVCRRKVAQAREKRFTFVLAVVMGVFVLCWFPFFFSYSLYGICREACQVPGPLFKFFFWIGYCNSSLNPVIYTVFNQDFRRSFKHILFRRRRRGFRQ
# Experimental: as §1, §2, §3
SMILES,EC50 (alpha 2B receptor),RSAT (rel eff) Alpha 2B (alpha 2B receptor),EC50 (alpha 2C receptor),RSAT (rel eff) Alpha 2C (alpha 2C receptor),"EC50 (alpha 2B receptor; NIH-3T3 cells cotransfected with receptor, Gq/i5 and beta-galactosidase, read-out: RSAT EC50 (nM) Alpha 2B)","EC50 (alpha 2C receptor; NIH-3T3 cells cotransfected with receptor, Gq/i5 and beta-galactosidase, nd = not determinable (>10,000), read-out: RSAT EC50 (nM) Alpha 2C)"
"C[C@H](NC1=NCCN1)c1cccc(Cl)c1Cl [Compound 2, (+)-(S)—N-[1-(2,3-dichloro-phenyl)-ethyl]-4,5-dihydro-1H-imidazol-2-amine]",19 nM,0.63,63 nM,0.33,–,–
"Clc1cccc(C(CCc2ccccc2)NC2=NCCN2)c1Cl (stereo not drawn) [Compound 4, N-[1-(2,3-dichloro-phenyl)-3-phenyl-propyl]-4,5-dihydro-1H-imidazol-2-amine]",–,0.77,–,–,11 nM,> 10000 nM
"C[C@@H](NC1=NCCN1)c1cccc(Cl)c1Cl [Compound 1, N-[1-(2,3-dichloro-phenyl)-ethyl]-4,5-dihydro-1H-imidazol-2-amine]",31 nM,0.68,41 nM,0.35,–,–
"CCC(NC1=NCCN1)c1cccc(Cl)c1Cl (stereo not drawn) [Compound 3, N-[1-(2,3-dichloro-phenyl)-propyl]-4,5-dihydro-1H-imidazol-2-amine]",38 nM,0.82,46 nM,0.30,–,–
